Tests used:
[1] = Inhibition of human phosphoenolpyruvate carboxykinase (PEPCK).
[2] = Binding affinity against phosphoenolpyruvate carboxykinase (PEPCK) using isothermal titration calorimetry(ITC)

Structure (SMILES)	IC50 [1]	Ki [2]
CC(=O)Nc1ccc(Cc2nc3c(=O)n(Cc4ccccc4F)c(=O)n(CC4CCCO4)c3[nH]2)cc1 (stereo unspecified)	5.7 µM	
CC(=O)Nc1ccc(Cc2nc3c(=O)n(Cc4ccccc4F)c(=O)n(CCCC(N)=O)c3[nH]2)cc1	6.6 µM	
CCCCCCn1c(=O)n(Cc2ccccc2F)c(=O)c2[nH]c(Cc3ccc(NC(C)=O)cc3)nc21	8.9 µM	
CC(=O)Nc1ccc(Cc2nc3c(=O)n(Cc4ccccc4F)c(=O)n(CC4CCCCO4)c3[nH]2)cc1 (stereo unspecified)	4.5 µM	
COC(=O)[C@H]1CC1Cn1c(=O)n(Cc2ccccc2F)c(=O)c2[nH]c(Cc3ccc(NC(C)=O)cc3)nc21 (stereo partly specified)	3 µM	
CC(=O)Nc1ccc(Cc2nc3c(=O)n(Cc4ccccc4F)c(=O)n(CCCCO)c3[nH]2)cc1	2.85 µM	
CC(=O)Nc1ccc(Cc2nc3c(=O)n(Cc4ccccc4F)c(=O)n(Cc4ccoc4)c3[nH]2)cc1	4.5 µM	
CC(=O)Nc1ccc(Cc2nc3c(=O)n(Cc4ccccc4F)c(=O)n(CCCO)c3[nH]2)cc1	5.45 µM	
CC(=O)Nc1ccc(Cc2nc3c(=O)n(Cc4ccccc4F)c(=O)n(CC4CCCC4)c3[nH]2)cc1	3.05 µM	

The next compounds have a lower IC50 [1] than those just listed; values first:

IC50 [1]	Ki [2]	Structure (SMILES)
2.27 µM		CC(=O)Nc1ccc(Cc2nc3c(=O)n(Cc4ccccc4F)c(=O)n(CC4C[C@@H]4CO)c3[nH]2)cc1 (stereo partly specified)
2.11 µM		CCCCn1c(=O)n(Cc2ccccc2F)c(=O)c2[nH]c(Cc3ccc(NC(C)=O)cc3)nc21
2.02 µM		CC(=O)Nc1ccc(Cc2nc3c([nH]2)c(=O)n(Cc2ccccc2F)c(=O)n3CC(C)C)cc1
2 µM		CC(=O)Nc1ccc(Cc2nc3c(=O)n(Cc4ccccc4F)c(=O)n(CCC(=O)O)c3[nH]2)cc1
2 µM		CC(=O)Nc1ccc(Cc2nc3c(=O)n(Cc4ccccc4F)c(=O)n(CC4CC4(CO)CO)c3[nH]2)cc1 (stereo unspecified)
1.95 µM	0.2 µM	CC(=O)Nc1ccc(Cc2nc3c(=O)n(Cc4ccccc4F)c(=O)n(CCCC(=O)O)c3[nH]2)cc1
1.82 µM		CC(=O)Nc1ccc(Cc2nc3c([nH]2)c(=O)n(Cc2ccccc2F)c(=O)n3CC2C[C@@H]2C)cc1 (stereo partly specified)
1.49 µM		CCCn1c(=O)n(Cc2ccccc2F)c(=O)c2[nH]c(Cc3ccc(NC(C)=O)cc3)nc21
1.18 µM		CC(=O)Nc1ccc(Cc2nc3c(=O)n(Cc4ccccc4F)c(=O)n(CC4CCC4)c3[nH]2)cc1
0.69 µM		CC(=O)Nc1ccc(Cc2nc3c([nH]2)c(=O)n(Cc2ccccc2F)c(=O)n3CC2CC2)cc1
0.56 µM		CC(=O)Nc1ccc(Cc2nc3c(=O)n(Cc4ccccc4F)c(=O)n(CC4C[C@@H]4C(=O)O)c3[nH]2)cc1 (stereo partly specified)
